Experimental data reported in patent US11965159B2, “Compositions and methods for regulating proteins and nucleic acids activities” (THE BROAD INSTITUTE, INC., priority 2019, dated 2024).

Columns and labels:
SpCas9 = SpCas9 (Streptococcus pyogenes serotype M1, UniProt Q99ZW2); experiment: mKate2 expression (knockdown/disruption) assay; assay type: cell-based; details: read-out: inhibition activity in mKate2 disruption assay
Method: Where σ1 and σ2 are the standard deviations of DN66 transfected wells and (DN66+DN78) transfected wells respectively. μ1 and μ2 are the mean % GFP− cell population for DN66 transfected wells and (DN66+DN78) transfected wells respectively. mKate2 expression assay. Approximately 8,000 cells/well were plated in a 96-well format 24 h before transiently transfected with 100 ng of either CgRNA (Addgene Plasmid #64955) or T1 gRNA (Addgene Plasmid #62717) plasmids using Lipofectamine™ 2000 (Life Technologies™). Transfected cells were allowed to grow in the indicated amount of compound or DMSO for 24 h. Cells were then fixed using 4% paraformaldehyde and imaged with the HCS NuclearMask™ Blue Stain (Life Technologies™) as the nuclear counter-staining agent. […] Images were analyzed in the MetaXpress® software to determine the % mKate2 positive cells and the % NHEJ was calculated following a reported protocol and plotted using GraphPad Prism 6. The Z′-value was calculated following the formula:
mKate2 expression assay. […] Images were analyzed in the MetaXpress® software to determine the % mKate2 positive cells and the % NHEJ was calculated following a reported protocol and plotted using GraphPad Prism 6. The Z′-value was calculated following the formula: […]

[1] = biological target: T1, SpCas9:gRNA ribonucleoprotein complex (Streptococcus pyogenes serotype M1, UniProt Q99ZW2); experiment: 19F NMR binding assay; details: [Ligand] 50 μM
T1 construct: His6 (N, cleaved yes); made in house; host or cells: E. coli BL21 Star (DE3)
Method: (§1) NMR binding assay. All samples were prepared with 50 μM BRD7087 in 20 mM Tris buffer (pH=7.4) with varying concentrations of SpCas9:gRNA in a 3 mm NMR tube. Experiments were performed on a 600 MHz (19F: 564.71 MHz) BRUKER Avance™ III NMR spectrometer equipped with a 5 mm QCI-F CryoProbe™ and a SampleJet for automated sample handling. To acquire spectra, a standard one-pulse 19F experiment with WALTZ-16 for proton decoupling during acquisition, a 5 second recycle delay, and 256 scans was used. All spectra were recorded at 280 K. NMR data were apodized with a 1 Hz exponential function prior to Fourier transformation. All spectra were baseline corrected; peak widths and intensities were extracted using the automated line-fitting feature provided with the MNova software package. Determination of the value of Kd was accomplished using least squares fitting to the expression given in Equation 8 in the paper by Shortridge et al.2.
Kd values obtained by NMR rely on the assumption that ligand binding is in fast-exchange, which typically holds true for ligands with Kd in the 0.5 μM to 20 mM range.
as §1, with “(^19F:” for “(19F:”, “^19F” for “19F”, “al.^2.” for “al.2.”

T1 sequence (Q99ZW2 whole entry, one chain of several): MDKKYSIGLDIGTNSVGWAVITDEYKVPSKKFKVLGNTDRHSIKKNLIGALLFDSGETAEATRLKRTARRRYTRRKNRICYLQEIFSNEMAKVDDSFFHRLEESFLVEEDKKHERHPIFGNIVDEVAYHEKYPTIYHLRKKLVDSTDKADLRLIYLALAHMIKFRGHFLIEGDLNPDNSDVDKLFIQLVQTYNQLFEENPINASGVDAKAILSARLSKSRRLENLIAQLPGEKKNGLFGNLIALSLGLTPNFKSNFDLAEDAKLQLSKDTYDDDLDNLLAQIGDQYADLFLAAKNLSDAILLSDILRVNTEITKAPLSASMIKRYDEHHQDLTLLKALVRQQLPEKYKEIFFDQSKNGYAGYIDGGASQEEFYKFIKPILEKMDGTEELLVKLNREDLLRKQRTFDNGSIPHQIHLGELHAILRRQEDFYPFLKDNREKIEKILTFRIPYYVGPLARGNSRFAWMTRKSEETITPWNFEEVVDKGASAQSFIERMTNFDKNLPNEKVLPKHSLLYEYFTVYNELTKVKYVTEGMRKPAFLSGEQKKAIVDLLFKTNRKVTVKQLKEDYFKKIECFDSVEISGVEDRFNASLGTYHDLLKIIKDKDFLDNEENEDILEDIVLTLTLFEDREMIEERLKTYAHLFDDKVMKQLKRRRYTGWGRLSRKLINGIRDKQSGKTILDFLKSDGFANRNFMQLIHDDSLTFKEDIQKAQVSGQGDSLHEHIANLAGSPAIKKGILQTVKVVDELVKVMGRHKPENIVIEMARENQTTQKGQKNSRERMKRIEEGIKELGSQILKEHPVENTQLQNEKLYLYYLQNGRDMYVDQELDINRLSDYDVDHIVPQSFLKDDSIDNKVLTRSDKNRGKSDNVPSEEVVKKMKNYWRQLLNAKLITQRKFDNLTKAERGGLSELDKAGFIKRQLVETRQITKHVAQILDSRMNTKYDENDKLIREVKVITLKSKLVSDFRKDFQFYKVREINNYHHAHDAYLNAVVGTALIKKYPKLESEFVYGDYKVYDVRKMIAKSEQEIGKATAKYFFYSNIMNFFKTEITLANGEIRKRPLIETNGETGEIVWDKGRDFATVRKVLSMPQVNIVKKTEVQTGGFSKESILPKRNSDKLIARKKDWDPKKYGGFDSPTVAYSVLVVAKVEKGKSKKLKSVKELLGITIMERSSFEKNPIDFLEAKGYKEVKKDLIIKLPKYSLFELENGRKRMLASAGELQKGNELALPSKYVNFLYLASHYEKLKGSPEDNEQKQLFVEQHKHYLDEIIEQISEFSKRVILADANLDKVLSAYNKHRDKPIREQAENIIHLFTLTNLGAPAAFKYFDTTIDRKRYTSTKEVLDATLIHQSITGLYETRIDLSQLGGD
Chain of SpCas9 (Q99ZW2 whole entry): as the sequence (Q99ZW2 whole entry, one chain of several) above

## OC[C@H]1Nc2ccc(-c3cccc(F)c3)cc2[C@H]2[C@@H]1CCN2Cc1ccncc1 [BRD7087, ((3aR,4S,9bR)-8-(3-Fluorophenyl)-1-(pyridin-4-ylmethyl)-2,3,3a,4,5,9b-hexahydro-1H-pyrrolo[3,2-c]quinolin-4-yl)methanol]
SpCas9
  inhibition at 5 µM: 50%
[1]; [Protein:RNA] 0 μM
  LW: 4.1 Hz
  Peak Area: 3151271.718
  Peak Intensity: 572470.95
[1]; [Protein:RNA] 0 μM, 1-Ibound/I0
  Fractional Occupancy: 0
[1]; [Protein:RNA] 0.75 μM
  LW: 4.3 Hz
  Peak Area: 2968891.536
  Peak Intensity: 497630.81
[1]; [Protein:RNA] 1.0 μM
  LW: 4.6 Hz
  Peak Area: 2999269.636
  Peak Intensity: 468481.06
[1]; [Protein:RNA] 1.25 μM
  LW: 5.3 Hz
  Peak Area: 2964107.303
  Peak Intensity: 398322.72
[1]; [Protein:RNA] 1.5 μM
  LW: 5.9 Hz
  Peak Area: 3176044.761
  Peak Intensity: 375769.97
[1]; [Protein:RNA] 1.75 μM
  LW: 6.3 Hz
  Peak Area: 3020022.312
  Peak Intensity: 342640.49
